Data: ChEMBL document CHEMBL1128289, “Reductive chemistry of the novel hypoxia-selective cytotoxin 5-[N,N-bis(2-chloroethyl)amino]-2,4-dinitrobenzamide” (J Med Chem, 1995)

Assays:
UV4 = assay: Cytotoxicity in a growth inhibition assay against aerobic cultures of UV4 cells was determined; assay type: functional, cell-based; conditions: Cricetulus griseus
CHO-AA8 = assay: Cytotoxicity in a growth inhibition assay against aerobic cultures of AA8 cells was determined; assay type: functional, cell-based, Cricetulus griseus

Row | SMILES | IC50 (UV4) | IC50 (CHO-AA8; Cricetulus griseus, CHO-AA8) | IC50 (CHO-AA8; cho-aa8)
1 | NC(=O)c1cc2c(cc1N)NCCN2CCCl | 0.87 µM | 6.9 µM | –
2 | NC(=O)c1cc(N(CCO)CCO)c(N)cc1N | 3000 µM | 2300 µM | –
3 | NC(=O)c1cc2c(cc1[N+](=O)[O-])NCCN2CCCl | 49 µM | 730 µM | –
4 | NC(=O)c1cc(N(CCCl)CCCl)c([N+](=O)[O-])cc1[N+](=O)[O-] | 960 µM | – | 1600 µM
